Experimental findings from article PMC12297016 (Iranian Journal of Pharmaceutical Research : IJPR, 2025) are described below.

Experiment [1] deals with T1, recombinant human matrix metalloproteinase 9 (rhMMP-9) (Homo sapiens, UniProt P14780).
T1 construct: amino acid residues from 107 to 707, consisted of the catalytic domain (Phe107 to Gly223); His-tag; made in house; host or cells: Escherichia coli BL21 (DE3), vector pET21a(+)
Description: Surface plasmon resonance (SPR) binding to immobilized rhMMP-9. As to conditions: 37°C, 5-40 µM. From the text:
A dual-flow channel MP-SPR Navi 210A analyzer (BioNavis Ltd., Tampere-region, Finland) was used to evaluate SPR kinetic parameters on gold chips (BioNavis Ltd., Finland). A solution of both EDC/NHS ((N-(3-dimethylaminopropyl)-N′-ethylcarbodiimide hydrochloride) (0.2 M) and NHS (N-hydroxysuccinimide) (0.05 M)) was employed for the activation of […] carboxylic groups. Immobilization of the rMMP-9 enzyme on the CMD Au chip was accomplished by a standard amine coupling protocol. For blocking unreacted sites, ethanolamine–HCl (1 M, pH 8.5) reagent was used.
The SPR technique, a current method for examining the interaction between ligand and protein, was employed in this research. As presented in Figure 6, association (Ka) and dissociation (Kd) constants were evaluated through sensorgrams (RU vs. time). Five […] concentrations for each of the three natural compounds were used (5, 10, 20, 30, 40 µM).
The equilibrium constant KD, which evaluates the affinity of a ligand to a protein, was determined using the formula: =Kd/Ka . A lower value of the KD constant indicates a higher interaction affinity between the protein and ligand.

The target in experiment [2] is T1, recombinant human matrix metalloproteinase 9 (rhMMP-9). The experiment is described as follows: Protease activity assay of rhMMP-9 with casein as substrate. It is filed as biochemical. The note with it: for α: KI = α × Ki; for type of inhibition: Lineweaver-Burk and secondary plots, mixed type; for IC50: casein degradation assay, inhibitor 0 to 70 µM, read-out: IC50 of rhMMP-9 activity inhibition; for Ki: dissociation constant of EI complex, from secondary plot of slope against [I]; for αKi (KI): dissociation constant of ESI complex, from Dixon plot of 1/V'max against [I]; for K m: casein substrate. As to the method: To determine the hydrolyzing activity of rhMMP-9, casein was used as a substrate. A casein solution (1% w/v) was added to the extracted and purified rhMMP-9, and the final volume was adjusted to 1 mL with Tris buffer (pH 7). The expression product and substrate mix were incubated with shaking for 5 minutes at 37°C. To stop the process, 1 mL of cold trichloroacetic acid (TCA, 15%) was added to the mixture. This mixture was then kept at -20°C for 10 minutes and centrifuged twice (8000 g, 5 min, 4°C) to separate soluble peptides. The pellet was discarded, and the absorbance of the supernatant soluble peptides fraction was evaluated at 280 nm. All spectrophotometric measurements were accompanied by a blank assay in the absence of the enzyme. Enzyme activity was calculated from the tyrosine standard curve and expressed as mean ± SD in units of [µmol/min] after at least five repeats ([22]). SPSS software version 9 was used for data interpretation, and all graphs were drawn and kinetic parameters calculated using an Excel spreadsheet software program. The Quest Graph IC50 Calculator was used for the calculation of IC50 values.
A cell-free casein degradation-based assay was employed to evaluate the influence of ellagitannins on the catalytic activity of the rhMMP-9 enzyme. By adding various fixed quantities of casein as a substrate and a fixed concentration of enzyme, the enzyme activity was determined in the presence of different concentrations of ellagitannins (ranging from 0 to 70 µM). The rate of tyrosine production by the protease activity of rhMMP-9 was assessed based on a calibration curve over 1 minute, which refers to enzyme activity.
To examine the effects of inhibitors on the kinetic parameters of rhMMP-9, Michaelis-Menten saturation curves and Lineweaver-Burk plots were drawn in the presence of various concentrations of inhibitors (5 - 30 µM) and substrate range (0 - 0.3%) (Figure 4).
The first of these is a Dixon plot of 1/Vʹmax against the concentration of inhibitor [I], from which the value of -αKi as the x-intercept can be determined (Figure 5A - C). The second is the slope of the primary plot (from the Lineweaver-Burk plot) against the concentration of inhibitor [I], from which the value of -Ki as the x-intercept can be determined (Figure 5D - F).

T1 sequence (P14780 107-707): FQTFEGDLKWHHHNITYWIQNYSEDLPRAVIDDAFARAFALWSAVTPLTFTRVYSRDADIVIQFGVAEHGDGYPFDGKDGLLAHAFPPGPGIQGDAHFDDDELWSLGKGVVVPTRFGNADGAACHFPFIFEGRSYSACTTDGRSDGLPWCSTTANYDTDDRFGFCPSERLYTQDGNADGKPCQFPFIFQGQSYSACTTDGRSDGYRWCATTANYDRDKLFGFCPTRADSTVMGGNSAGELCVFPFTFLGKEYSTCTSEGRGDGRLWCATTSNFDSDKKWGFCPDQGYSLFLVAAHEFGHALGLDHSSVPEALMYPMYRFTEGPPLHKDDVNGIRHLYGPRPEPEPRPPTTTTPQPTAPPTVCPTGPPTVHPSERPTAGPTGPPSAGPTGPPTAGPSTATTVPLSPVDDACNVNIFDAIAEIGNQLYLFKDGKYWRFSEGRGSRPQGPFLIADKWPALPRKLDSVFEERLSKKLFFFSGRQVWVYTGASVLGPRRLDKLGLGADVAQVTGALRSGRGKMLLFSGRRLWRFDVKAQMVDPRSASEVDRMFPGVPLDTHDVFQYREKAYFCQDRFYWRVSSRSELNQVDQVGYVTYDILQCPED

`O=c1oc2c(O)c(O)cc3c(=O)oc4c(O)c(O)cc1c4c23` [EA, ellagic acid]: the Kd in experiment [1] came out at 113 µM. Further, in experiment [2], the α was found to be 1.11, the type of inhibition entry is given as “competitive-non-competitive pattern”, the IC50 came to 17.1 µM and the Ki was 24.9 µM. Besides, in experiment [2] (in µM), the “αKi (KI)” value stood at 27.57. Further, the “reduction of catalytic activity” value in experiment [2] (high concentration (60 µM)) is 90%. In addition, in experiment [2] (inhibitor 15 µM), the V max was 0.093 ± 0.005 µmol/min and the K m amounted to 0.03 ± 0.002%. For the same compound, in experiment [2] (inhibitor 30 µM), the V max stood at 0.078 ± 0.004 µmol/min and the K m came to 0.03 ± 0.002%.
With `O=c1oc2cc(O)ccc2c2ccc(O)cc12` [Uro A, urolithin A], in experiment [1], the equilibrium dissociation constant (Kd) was 67 µM. Moreover, in experiment [2], the α is 0.25, the type of inhibition entry was “non-competitive-uncompetitive pattern”, the half-inhibitory concentration (IC50) stood at 33.3 µM and the Ki worked out at 12 µM. In addition, in experiment [2], the αKi (KI) was determined as 3.03 µM and the “extent of inhibition of catalytic activity at high concentrations” value is “entirely inhibit”. Besides, in experiment [2] (inhibitor 5 µM), the V max is on record as 0.120 ± 0.006 µmol/min and the K m worked out at 0.085 ± 0.004%. In experiment [2] (inhibitor 15 µM), the V max is on record as 0.04 ± 0.002 µmol/min and the K m turned out to be 0.1 ± 0.005%.
Consider `O=c1oc2cc(O)ccc2c2ccccc12` [Uro B, urolithin B], for which, in experiment [1], the Kd came to 43 µM. In experiment [2], the α was determined as 0.13, the type of inhibition result is “non-competitive-uncompetitive pattern”, the IC50 was 13.2 µM and the inhibition constant Ki was 22.5 µM. For the same compound, in experiment [2], the αKi (KI) is 3.02 µM and the “extent of inhibition of catalytic activity at high concentrations” value is “entirely inhibit”. For the same compound, in experiment [2] (inhibitor 5 µM), the V max is recorded as 0.079 ± 0.004 µmol/min and the K m amounted to 0.030 ± 0.002%. In experiment [2] (inhibitor 15 µM), the V max is reported as 0.033 ± 0.002 µmol/min and the K m stood at 0.020 ± 0.001%.
